Test results: ChEMBL document CHEMBL1142453, “Imidazoles: SAR and development of a potent class of cyclin-dependent kinase inhibitors” (Bioorg Med Chem Lett, 2008)
Converted amounts (≈) assume the structure as drawn.

Experiments:
[1] = biological target: Cyclin-dependent kinase 2 (Homo sapiens, UniProt P24941); assay: Inhibition of CDK2
MCF7 = assay: Antiproliferative activity against human MCF7 cells assessed as BrdU incorporation after 48 hrs; type: functional, cell-based; details: MCF7, 48 h
[2] = Fraction unbound in rat serum; type: ADME, cell-free
[3] = Lipophilicity, log D at pH 7.4; details: buffer
[4] = biological target: Cyclin-dependent kinase 4 (Homo sapiens, UniProt P11802); assay: Inhibition of CDK4
Cyclin-dependent kinase 4, sequence (P11802 whole entry): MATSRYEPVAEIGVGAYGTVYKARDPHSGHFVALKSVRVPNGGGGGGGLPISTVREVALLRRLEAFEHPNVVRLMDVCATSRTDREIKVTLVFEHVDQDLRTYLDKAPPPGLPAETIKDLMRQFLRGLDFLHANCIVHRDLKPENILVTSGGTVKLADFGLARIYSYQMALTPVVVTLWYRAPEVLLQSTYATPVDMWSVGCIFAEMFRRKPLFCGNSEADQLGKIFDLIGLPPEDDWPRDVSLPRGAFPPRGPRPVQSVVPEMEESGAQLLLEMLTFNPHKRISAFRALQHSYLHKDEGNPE

LoVo = assay: Antiproliferative activity against human LoVo cells assessed as BrdU incorporation after 48 hrs; type: functional, cell-based
physchem = details: buffer, pH 7.4
G1/S-specific cyclin-E1 = G1/S-specific cyclin-E1 (Homo sapiens, UniProt P24864); assay: Inhibition of Cyclin E/CDK2
G1/S-specific cyclin-E1, sequence (P24864 whole entry): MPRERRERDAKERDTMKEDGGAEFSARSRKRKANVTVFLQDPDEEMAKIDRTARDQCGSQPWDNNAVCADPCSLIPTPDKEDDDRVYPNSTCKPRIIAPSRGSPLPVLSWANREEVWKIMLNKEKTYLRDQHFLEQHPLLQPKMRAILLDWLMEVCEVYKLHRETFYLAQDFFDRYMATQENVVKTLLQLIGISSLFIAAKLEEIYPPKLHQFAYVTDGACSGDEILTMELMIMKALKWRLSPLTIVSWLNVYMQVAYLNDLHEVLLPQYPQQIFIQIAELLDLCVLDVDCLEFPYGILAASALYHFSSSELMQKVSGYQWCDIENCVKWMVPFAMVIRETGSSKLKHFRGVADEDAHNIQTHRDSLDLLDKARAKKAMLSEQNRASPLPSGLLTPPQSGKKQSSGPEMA

[5] = biological target: G2/mitotic-specific cyclin-B1 (Homo sapiens, UniProt P14635); assay: Inhibition of Cyclin B1/CDK1
G2/mitotic-specific cyclin-B1, sequence (P14635 whole entry): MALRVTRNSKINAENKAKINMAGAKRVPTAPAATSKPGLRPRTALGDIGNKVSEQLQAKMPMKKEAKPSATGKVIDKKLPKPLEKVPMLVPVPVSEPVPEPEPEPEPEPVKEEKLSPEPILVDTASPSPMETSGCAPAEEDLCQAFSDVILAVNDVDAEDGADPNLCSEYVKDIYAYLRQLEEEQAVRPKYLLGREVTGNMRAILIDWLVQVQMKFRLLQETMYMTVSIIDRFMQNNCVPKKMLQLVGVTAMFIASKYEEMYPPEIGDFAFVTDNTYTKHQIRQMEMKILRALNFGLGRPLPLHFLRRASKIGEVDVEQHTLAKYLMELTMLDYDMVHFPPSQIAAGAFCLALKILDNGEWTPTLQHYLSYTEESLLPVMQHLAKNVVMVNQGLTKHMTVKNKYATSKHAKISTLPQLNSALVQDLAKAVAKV

G1/S-specific cyclin-D3 = biological target: T1, G1/S-specific cyclin-D3 (Homo sapiens, UniProt P30281); assay: Inhibition of Cyclin D3/CDK6
T1 sequence (P30281 whole entry): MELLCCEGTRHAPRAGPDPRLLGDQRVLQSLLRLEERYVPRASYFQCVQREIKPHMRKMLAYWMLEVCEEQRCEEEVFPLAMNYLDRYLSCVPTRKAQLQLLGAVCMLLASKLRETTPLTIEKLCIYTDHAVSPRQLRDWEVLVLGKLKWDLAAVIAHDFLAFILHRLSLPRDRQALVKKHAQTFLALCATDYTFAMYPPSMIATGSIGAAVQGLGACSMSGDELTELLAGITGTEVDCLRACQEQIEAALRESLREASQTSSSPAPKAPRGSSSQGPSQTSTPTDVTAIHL

[6] = Volume of distribution at steady state in mouse at 5.5 mg/kg, iv; type: ADME, organism-based; design: dose 5.5 mg/kg, route intravenous; details: in vivo, read-out: Vdss
[7] = Clearance in mouse at 5.5 mg/kg, iv; type: ADME, organism-based; design: dose 5.5 mg/kg, route intravenous; details: in vivo
[8] = AUC (0 to t) in mouse at 10 mg/kg, po; type: ADME, organism-based; design: dose 10 mg/kg, route oral; details: plasma
[9] = Cmax in mouse at 10 mg/kg, po; type: ADME, organism-based; design: dose 10 mg/kg, route oral; details: in vivo
[10] = Tmax in mouse at 10 mg/kg, po; type: ADME, organism-based; design: dose 10 mg/kg, route oral; details: in vivo
[11] = Oral bioavailability in mouse at 10 mg/kg; type: ADME, organism-based; details: in vivo

Compound	IC50 [1] [nM]	IC50 (MCF7) [nM]	IC50 [4] [nM]	IC50 (LoVo) [nM]	other results
COCCNS(=O)(=O)c1ccc(Nc2nccc(-c3cnc4ccccn34)n2)cc1	< 12	400			
COCCNS(=O)(=O)c1ccc(Nc2nccc(-c3cnc4cccnn34)n2)cc1					fraction unbound [2]: 0.008
Cc1ncc(-c2ccnc(Nc3ccc(S(=O)(=O)CCCN(C)C)cc3)n2)n1C(C)C	36		140	890	logD [3]: 1.3; fraction unbound [2]: 0.32; solubility (physchem): > 6800 µM
Cc1ncc(-c2ccnc(Nc3ccc(S(=O)(=O)CCCN4CCOCC4)cc3)n2)n1C(C)C	33		210	1200	
Cc1ncc(-c2ccnc(Nc3ccc(S(=O)(=O)Cc4ccccc4)cc3)n2)n1C(C)C	19		1500	1500	
COCCNS(=O)(=O)c1ccc(Nc2nccc(-c3c(C)nc(C)n3C)n2)cc1	68		> 8600	9200	
Cc1ncc(-c2ccnc(Nc3ccc(S(=O)(=O)CCCN(C)C)cc3)n2)n1C	295				
COCCNS(=O)(=O)c1ccc(Nc2nccc(-c3cnc(C)n3C(C)C)n2)cc1			200	310	
COCCNS(=O)(=O)c1ccc(Nc2nccc(-c3cnc(C)n3C3CCCC3)n2)cc1	< 3			610	
CN(C)CCNS(=O)(=O)c1ccc(Nc2nccc(-c3cnc4cccnn34)n2)cc1		260			
Cc1ncc(-c2ccnc(Nc3ccc(S(N)(=O)=O)cc3)n2)n1C	11	870			
CCCS(=O)(=O)c1ccc(Nc2nccc(-c3cnc(C)n3C(C)C)n2)cc1	8			1800	
CNS(=O)(=O)c1ccc(Nc2nccc(-c3cnc(C)n3C)n2)cc1	< 3	500			
Cc1ncc(-c2ccnc(Nc3ccc(S(=O)(=O)NCCN(C)C)cc3)n2)n1C	25	490			
COCCN(C)S(=O)(=O)c1ccc(Nc2nccc(-c3cnc(C)n3C)n2)cc1	400				
CCn1c(-c2ccnc(Nc3ccc(S(=O)(=O)NCCOC)cc3)n2)cnc1C	4		1300	1500	fraction unbound [2]: 0.014
COCCNS(=O)(=O)c1ccc(Nc2nccc(-c3cnc(C)n3CC(C)C)n2)cc1	15			1800	
CCn1c(-c2ccnc(Nc3ccc(S(C)(=O)=O)cc3)n2)cnc1C	23				
CN(C)CCCNS(=O)(=O)c1ccc(Nc2nccc(-c3cnc4cccnn34)n2)cc1					logD [3]: 1.4; fraction unbound [2]: 0.148; solubility (physchem): 160 µM (≈ 72.4 µg/mL)
Cc1ncc(-c2ccnc(Nc3ccc(S(=O)(=O)CC4CCCO4)cc3)n2)n1C(C)C (stereo not drawn)	13		530	1200	
COCCS(=O)(=O)c1ccc(Nc2nccc(-c3cnc(C)n3C(C)C)n2)cc1	14		490	690	
CNS(=O)(=O)c1ccc(Nc2nccc(-c3cnc4cccnn34)n2)cc1	< 3	560			
COCCNS(=O)(=O)c1ccc(Nc2nccc(-c3cnc(C)n3C)n2)cc1	8	620	5600	4000	
Cc1ncc(-c2ccnc(Nc3ccc(S(=O)(=O)NCCCOC(C)C)cc3)n2)n1C	6	320			
CN(C)CCNS(=O)(=O)c1ccc(Nc2nccc(-c3cnc4ccccn34)n2)cc1					logD [3]: 2.7; fraction unbound [2]: 0.03; solubility (physchem): 31 µM (≈ 13.6 µg/mL)
NS(=O)(=O)c1ccc(Nc2nccc(-c3cnc4ccccn34)n2)cc1	2	260			logD [3]: 2.7; fraction unbound [2]: 0.001; solubility (physchem): 6.5 µM (≈ 2.38 µg/mL)
Cc1ncc(-c2ccnc(Nc3ccc(S(C)(=O)=O)cc3)n2)n1C(C)C [AZD-5438]				630	IC50 (G1/S-specific cyclin-E1): 6 nM; IC50 [5]: 16 nM; IC50 (G1/S-specific cyclin-D3): 21 nM; logD [3]: 2.4; fraction unbound [2]: 0.087; Vd [6]: 1.01 L/kg; clearance [7]: 21.8 mL/min/kg; AUC(0-t) [8]: 18.7 µM·h; Cmax [9]: 6.4 µM; Tmax [10]: 19.8 min; bioavailability [11]: 91%; solubility (physchem): 218 µM (≈ 81 µg/mL)
